≈ marks a conversion by molar mass, not a printed value.
Columns and labels:
GAS NZ131 = test: MBC determination; type: cell-based, group A Streptococcus; details: Streptococcus, 3-log reduction of viable bacteria after 24 hour incubation at 37° C. in half strength MHB in PBS
Experimental: (§1) To determine MBC, bacteria were cultured in TSB (Staphylococcus), THB (Streptococcus) or Nutrient broth (P. aeruginosa and E. coli) by reaching exponential phase (OD600=0.5-0.8). […] After incubation, the number of viable bacteria was measured by counting CFU after spreading 10-fold serial dilutions of bacteria on suitable agar plates. MBC was determined as a 3-log reduction (99.9%) of viable bacteria after 24 hour incubation.
(§2) Antimicrobial activity of 6-HAP in vitro. To examine the specificity of 6-HAP for various bacteria, minimal bactericidal concentrations (MBCs) were determined according to dose-dependent killing curves at 24 hrs of incubation in vitro (Table 1). 6-HAP killed or suppressed growth of several major skin pathogens including GAS (NZ131), group B Streptococcus (GBS) (DK23), methicillin-sensitive S. aureus (ATCC35556), methicillin-resistant S. aureus (MRSA) strains (USA300 and Sanger252), Pseudomonas aeruginosa (P. aeruginosa) (ATCC14213) in vitro. […] S. epidermidis (ATCC12228) was also resistant to 6-HAP.

GBS DK23 = test: MBC determination; type: cell-based, group B Streptococcus; details: Streptococcus, 3-log reduction, 24 hour, 37° C., half strength MHB in PBS
Experimental: as §1, §2

MRSA Sanger252 = test: MBC determination; type: cell-based, methicillin-resistant S. aureus; details: Staphylococcus aureus, 3-log reduction, 24 hour, 37° C., half strength MHB in PBS
Experimental: as §1, §2

MRSA USA300 = test: MBC determination; type: cell-based, methicillin-resistant S. aureus; details: Staphylococcus aureus, 3-log reduction, 24 hour, 37° C., half strength MHB in PBS
Experimental: as §1, §2

GAS [1] = test: Stability of antimicrobial activity after heat or protease treatment (radial diffusion assay); type: physicochemical, group A streptococcus; details: activity against GAS
Description: (a) Screening for antimicrobial activity of culture supernatant from 44 strains of S. epidermidis strains isolated from normal human skin by radial diffusion assay against group A streptococcus (GAS). Data represent diameter of growth inhibition zone of conditioned media of each strain. UD=undetectable. (b) Elution profile of the antimicrobial compound purified from culture supernatant of S. epidermidis MO34 by HPLC using a PolyHYDROXYMETHYL. The last step of 5 purification steps is shown. The insert panel represents antimicrobial activity of each fraction on radial diffusion assay against GAS. Green line represents a gradient of H2O in acetonitrile. (c-d) Stability of antimicrobial molecules from S. epidermidis producing the strongest antibiotic activity (MO34) against GAS after heat-treatment (100° C. for indicated time) (c) and incubation with proteinase K (2 mg/mL) or papain (2 mg/mL) at 37° C. for 3 hrs, followed by 5-min incubation at 90° C. to inactivate enzyme (d). Antimicrobial activity against GAS was determined by radial diffusion assay.
To characterize the molecule(s) responsible for antimicrobial activity secreted from the MO34 strain, the antimicrobial molecule was purified from the conditioned media based on activity against GAS. A single peak was isolated in the last chromatography of 5 purification steps (FIG. 1b). […]

GAS [2] = test: Time course killing of GAS; type: cell-based, group A Streptococcus; details: THB; 6-HAP 25 μg/mL, mitomycin C 5 μg/mL, LL-37 10 μM
Experimental: (§3) (a) Time course killing of GAS in THB containing 6-HAP (25 μg/mL), mitomycin C (5 μg/mL), or LL-37 (10 μM). At each indicated time point, live GAS in the media was measured by counting CFU on an agar plate. The data represent mean±SE of four individual experiments. (b) Membrane permeability of GAS incubated in THB containing 6-HAP (25 μg/mL), mitomycin C (5 μg/mL) and LL-37 (10 μM) for 1 hr. The bacteria with compromised plasma membranes (Red) can be distinguished from those with intact membranes (Green). (c) BrdU incorporation into nascent DNA of GAS after incubation with 6-HAP (25 μg/mL) or mitomycin C (5 μg/mL) in THB containing BrdU (10 μM) for 30 or 60 min. (d) BrdU incorporation into nascent DNA of S. epidermidis ATCC12228 after incubation with 6-HAP (25 μg/mL) or mitomycin C (5 μg/mL) in THB containing BrdU (10 μM) for 60 min. The data represent mean±SE of five individual experiments (*P<0.05 and **P<0.01 by Student's t-test vs vehicle control). (e-f) Capacity of 6-HAP to block in vitro DNA extension by Klenow fragment polymerase. Extension reaction was carried out with IRDye800-labeled 18-nt primer (SEQ ID NO:57) and 25-nt template which required adenosine (X=T) or cytidine (X=G) at the initial base for extension (SEQ ID NO:58) (e). Extension reaction was analyzed on a 20% acrylamide gel by electrophoresis (f). […] GAS survival was measured by counting CFU. […]

GAS (NZ131) = test: BrdU incorporation assay in bacteria; type: cell-based, group A Streptococcus; details: 6-HAP 25 μg/mL, 30 or 60 min
Experimental: as §3, with “Extension reaction was carried out with IRDye800-labeled 18-nt primer (SEQ ID NO:57) and 25-nt template which required adenosine (X=T) or cytidine (X=G) at the initial base for extension (SEQ ID NO:58) (e).” left out
(§4) BrdU incorporation assay. […] BrdU incorporation into nascent DNA was measured in a time-dependent manner using BrdU incorporation assay kit (Roche) according to the manual.

[3] = system: S. epidermidis (ATCC12228); test: BrdU incorporation assay in bacteria; type: cell-based; details: 6-HAP 25 μg/mL, 60 min
Experimental: as §3, with “Extension reaction was carried out with IRDye800-labeled 18-nt primer (SEQ ID NO:57) and 25-nt template which required adenosine (X=T) or cytidine (X=G) at the initial base for extension (SEQ ID NO:58) (e).” left out
as §4

ONc1ncnc2nc[nH]c12 [6-HAP, 6-N-hydroxyaminopurine]
MBC (GAS NZ131): 0.156 µg/mL (≈ 1.03 µM) | MBC (GBS DK23): 0.781 µg/mL (≈ 5.17 µM) | MBC (MRSA Sanger252): 0.781 µg/mL (≈ 5.17 µM) | MBC (MRSA USA300): 6.25 µg/mL (≈ 41.4 µM) | heat stability of antimicrobial activity (GAS [1]; 100° C. for indicated time): heat-stable | protease sensitivity of antimicrobial activity (GAS [1]; proteinase K (2 mg/mL) or papain (2 mg/mL) at 37° C. for 3 hrs): protease-insensitive | kinetics of killing, growth of GAS over time (GAS [2]): at a rate similar to mitomycin C but slower than LL37 | BrdU incorporation into the genomic DNA of GAS (GAS (NZ131)): Significant suppression | BrdU incorporation in S. epidermidis [3]: did not affect

Source: patent publication US12427151B2, “Compositions and method of treating cancer” (The Regents of the University of California, priority 2017, dated 2025)
